29 compounds from ChEMBL document CHEMBL1136241 (Bioorg Med Chem Lett, 2003) can be followed below.

The structures appear in SMILES notation.

Assay [1] concerns the target T1, D(2) dopamine receptor (Homo sapiens, UniProt P14416). Nature of the assay: biochemical.
For assay [2], the target named is T2, D(4) dopamine receptor (Homo sapiens, UniProt P21917).
T2 sequence (P21917 whole entry): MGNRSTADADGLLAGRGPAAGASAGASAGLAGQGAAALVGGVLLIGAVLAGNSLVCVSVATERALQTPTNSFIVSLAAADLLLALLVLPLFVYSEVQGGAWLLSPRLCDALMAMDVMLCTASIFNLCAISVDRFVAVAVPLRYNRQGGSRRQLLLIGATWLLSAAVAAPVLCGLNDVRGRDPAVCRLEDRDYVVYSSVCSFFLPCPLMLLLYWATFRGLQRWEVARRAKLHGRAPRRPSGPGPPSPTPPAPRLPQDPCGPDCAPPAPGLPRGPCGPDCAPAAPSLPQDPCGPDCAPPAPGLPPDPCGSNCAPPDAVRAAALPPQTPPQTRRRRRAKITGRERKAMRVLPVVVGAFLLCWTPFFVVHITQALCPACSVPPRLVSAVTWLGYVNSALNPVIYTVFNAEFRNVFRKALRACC

The target in assay [3] is T1, D(2) dopamine receptor. Nature of the assay: biochemical. The source holds these as a separate data set.
Assay [4] has as its target T3, D(3) dopamine receptor (Homo sapiens, UniProt P35462). The settings on record: cho.
Assay [5] deals with D(1A) dopamine receptor (Bos taurus, UniProt Q95136).
Sequence of D(1A) dopamine receptor (Q95136 whole entry): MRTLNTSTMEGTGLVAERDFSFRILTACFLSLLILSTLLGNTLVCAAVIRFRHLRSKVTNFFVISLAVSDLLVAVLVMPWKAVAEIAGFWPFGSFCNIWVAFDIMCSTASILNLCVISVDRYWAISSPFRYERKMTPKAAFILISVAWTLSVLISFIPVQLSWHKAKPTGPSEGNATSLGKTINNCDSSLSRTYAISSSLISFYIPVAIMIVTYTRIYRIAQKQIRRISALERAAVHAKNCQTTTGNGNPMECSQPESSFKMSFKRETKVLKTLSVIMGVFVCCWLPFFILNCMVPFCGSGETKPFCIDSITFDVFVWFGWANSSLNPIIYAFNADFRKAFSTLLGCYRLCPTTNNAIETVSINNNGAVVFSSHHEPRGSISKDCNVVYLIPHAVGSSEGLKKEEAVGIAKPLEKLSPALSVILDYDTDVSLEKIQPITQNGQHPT
Assay [6] addresses T3, D(3) dopamine receptor. Description: biochemical.
For assay [7], the target named is T1, D(2) dopamine receptor. Nature of the assay: Ability to displace [3H]spiperone [0.5 nM (Kd=0.2-0.45 nM)] from human cloned dopamine receptor D2S expressed in CHO cells at 0.5 nM concentration. The class given is cell-based.

T3 sequence (P35462 whole entry): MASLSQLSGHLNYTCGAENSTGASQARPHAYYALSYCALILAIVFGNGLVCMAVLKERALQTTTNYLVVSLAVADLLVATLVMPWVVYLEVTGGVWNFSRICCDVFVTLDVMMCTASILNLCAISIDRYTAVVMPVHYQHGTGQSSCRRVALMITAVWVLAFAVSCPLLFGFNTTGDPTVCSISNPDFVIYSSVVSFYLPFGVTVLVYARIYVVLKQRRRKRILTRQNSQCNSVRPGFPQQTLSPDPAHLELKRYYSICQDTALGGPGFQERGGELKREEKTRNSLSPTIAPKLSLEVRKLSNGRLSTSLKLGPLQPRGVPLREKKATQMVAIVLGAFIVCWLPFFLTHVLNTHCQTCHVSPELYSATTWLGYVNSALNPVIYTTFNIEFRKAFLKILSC
T1 sequence (P14416 whole entry): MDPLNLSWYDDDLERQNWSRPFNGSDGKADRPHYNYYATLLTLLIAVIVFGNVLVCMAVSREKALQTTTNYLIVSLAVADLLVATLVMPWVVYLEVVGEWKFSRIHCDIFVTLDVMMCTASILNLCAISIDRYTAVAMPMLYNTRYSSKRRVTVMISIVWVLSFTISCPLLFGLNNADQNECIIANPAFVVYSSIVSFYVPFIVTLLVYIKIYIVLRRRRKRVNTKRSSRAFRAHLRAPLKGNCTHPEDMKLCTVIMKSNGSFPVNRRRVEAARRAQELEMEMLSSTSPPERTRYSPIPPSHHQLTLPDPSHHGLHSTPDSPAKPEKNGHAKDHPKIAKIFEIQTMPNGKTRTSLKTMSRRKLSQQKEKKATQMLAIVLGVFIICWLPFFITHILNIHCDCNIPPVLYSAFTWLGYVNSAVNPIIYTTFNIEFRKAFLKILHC

Turning to `COc1c(C(=O)N[C@@H]2CCN(Cc3ccccc3)C2)cc(C#Cc2ccccc2)c2ccccc12` (stereo in doubt), the Ki was determined as 5.5 µM in assay [1]; 1.5 µM in assay [2]; 7.7 µM in assay [3]; 1 µM in assay [4]; 3.3 µM in assay [5].

Turning to `COc1c(C(=O)NC[C@@H]2CCN(Cc3ccccc3)C2)cc(Br)c2ccccc12` (stereo in doubt; 3k), the inhibitory constant (Ki) in assay [1] was 0.42 µM; in assay [2], 0.13 µM; in assay [3], 0.64 µM; in assay [6] it was 0.41 µM; in assay [5], 2.1 µM.

As to `CNc1cc(OC)c(C(=O)N[C@H]2CCCN(Cc3ccccc3)C2)cc1Cl` (stereo in doubt), the inhibitory constant (Ki) in assay [1] is 0.21 µM; in assay [2] it was 0.064 µM; in assay [3], 0.25 µM; in assay [6], 1.5 µM; in assay [5] it was 5.6 µM.

Take `CNc1cc(OC)c(C(=O)N[C@H]2CCCN(Cc3ccccc3)C2)cc1Cl` (stereo in doubt; 5b): the inhibition constant (Ki) in assay [1] turned out to be 0.13 µM; in assay [2], 0.025 µM; in assay [3], 0.17 µM; in assay [6], 0.56 µM; in assay [5], 10 µM.

Turning to `CNc1cc(OC)c(C(=O)N[C@H]2CN(Cc3ccccc3)C[C@@H]2C)cc1Cl` (stereo in doubt), the Ki in assay [1] worked out at 0.011 µM; in assay [2] it was 0.0043 µM; in assay [3], 0.015 µM; in assay [6] it was 0.027 µM; in assay [5], 5.3 µM.

For the compound `COc1c(C(=O)N[C@@H]2CCN(Cc3ccccc3)C2)cc(Br)c2ccccc12` (stereo in doubt), the Ki in assay [1] was found to be 0.15 µM; in assay [2], 0.021 µM; in assay [3] it was 0.15 µM; in assay [6], 0.084 µM; in assay [5], 7.4 µM.

Take `COc1c(C(=O)N[C@H]2CN(Cc3ccccc3)C[C@@H]2C)cc(Br)c2ccccc12` (stereo in doubt): the Ki is 0.26 µM in assay [1]; 0.059 µM in assay [2]; 0.49 µM in assay [3]; 0.14 µM in assay [6]; 4.2 µM in assay [5].

With `C#Cc1cc(C(=O)N[C@@H]2CCN(Cc3ccccc3)C2)c(OC)c2ccccc12` (stereo in doubt; 3i), the Ki worked out at 0.082 µM in assay [1]; 0.0025 µM in assay [2]; 0.19 µM in assay [3]; 0.086 µM in assay [6]; 3.3 µM in assay [5].

Consider `CNc1cc(OC)c(C(=O)N[C@H]2CCN(Cc3ccccc3)C[C@@H]2C)cc1Cl` (stereo in doubt; 3b), for which the Ki in assay [1] turned out to be 0.039 µM; in assay [2] it was 0.0047 µM; in assay [3], 0.054 µM; in assay [6], 0.51 µM; in assay [5], 8.2 µM.

With `CNc1cc(OC)c(C(=O)N[C@H]2CCN(Cc3ccccc3)C[C@@H]2C)cc1Cl` (stereo in doubt), the Ki in assay [1] came to 0.0064 µM; in assay [2], 0.0016 µM; in assay [3], 0.008 µM; in assay [6], 0.013 µM; in assay [5], 4.4 µM.

On to `COc1c(C(=O)N[C@@H]2CCN(Cc3ccccc3)C2)cc(Br)c2ccccc12` (stereo in doubt; 3g), for which the Ki amounted to 0.13 µM in assay [7]; 0.005 µM in assay [2]; 0.18 µM in assay [3]; 0.25 µM in assay [6]; 7.2 µM in assay [5].

`COc1c(C(=O)N[C@H]2CN(Cc3ccccc3)C[C@H]2C)cc(Br)c2ccccc12` (stereo in doubt; 3f): the inhibition constant Ki in assay [1] stood at 0.135 µM; in assay [2], 0.0027 µM; in assay [3], 0.2 µM; in assay [6], 0.39 µM; in assay [5], 4.7 µM.

Turning to `COc1c(C(=O)N[C@@H]2CCN(Cc3ccccc3)C2)cc(I)c2ccccc12` (stereo in doubt), the Ki in assay [1] was 0.07 µM; in assay [2] it was 0.0033 µM; in assay [3], 0.19 µM; in assay [6], 0.033 µM; in assay [5], 6.1 µM.

As to `COc1c(C(=O)NC[C@@H]2CCN(Cc3ccccc3)C2)cc(Br)c2ccccc12` (stereo in doubt), the inhibitory constant (Ki) is 0.87 µM in assay [1]; 0.078 µM in assay [2]; 1.3 µM in assay [3]; 1 µM in assay [6]; 2.9 µM in assay [5].

Consider `CNc1cc(OC)c(C(=O)N[C@H]2CN(Cc3ccccc3)C[C@@H]2C)cc1Cl` (stereo in doubt; 3c), for which the Ki is 0.019 µM in assay [1]; 0.00077 µM in assay [2]; 0.021 µM in assay [3]; 0.22 µM in assay [6]; 12 µM in assay [5].

With `CNc1cc(OC)c(C(=O)N[C@H]2CN(Cc3ccccc3)C[C@H]2C)cc1Cl` (stereo in doubt), the inhibition constant Ki came to 0.002 µM in assay [1]; 0.00084 µM in assay [2]; 0.0023 µM in assay [3]; 0.0018 µM in assay [6]; 4.7 µM in assay [5].

Regarding `COc1c(C(=O)N[C@H]2CN(Cc3ccccc3)C[C@@H]2C)cc(Br)c2ccccc12` (stereo in doubt; 3d), the inhibition constant Ki is 0.7 µM in assay [1]; 0.017 µM in assay [2]; 1 µM in assay [3]; 0.74 µM in assay [6]; 8.4 µM in assay [5].

For `CNc1cc(OC)c(C(=O)N[C@H]2CN(Cc3ccccc3)C[C@H]2C)cc1Cl` (stereo in doubt; 3e), the Ki turned out to be 0.003 µM in assay [1]; 0.00023 µM in assay [2]; 0.0037 µM in assay [3]; 0.1 µM in assay [6]; 4.1 µM in assay [5].

With `COc1cc(N)c(Cl)cc1C(=O)N[C@H]1CCCN(Cc2ccccc2)C1` (stereo in doubt; 5a), the Ki in assay [1] was determined as 1.1 µM; in assay [2], 0.2 µM; in assay [3] it was 1.6 µM; in assay [6], 2.9 µM; in assay [5] it was 17 µM.

Consider `COc1c(C(=O)NCC[C@@H]2CCN(Cc3ccccc3)C2)cc(Br)c2ccccc12` (stereo in doubt), for which the inhibitory constant (Ki) in assay [1] was 2.8 µM; in assay [2], 0.61 µM; in assay [3], 2.5 µM; in assay [6], 1 µM; in assay [5], 2.1 µM.

In the case of `COc1cc(N)c(Cl)cc1C(=O)N[C@H]1CCN(Cc2ccccc2)C[C@@H]1C` (stereo in doubt), the Ki worked out at 0.0074 µM in assay [1]; 0.0074 µM in assay [2]; 0.0086 µM in assay [3]; 0.02 µM in assay [6]; 7.1 µM in assay [5].

With `COc1cc(N)c(Cl)cc1C(=O)N[C@H]1CCN(Cc2ccccc2)C[C@@H]1C` (stereo in doubt; 3a), the inhibitory constant (Ki) in assay [1] was 0.34 µM; in assay [2] it was 0.035 µM; in assay [3], 0.47 µM; in assay [6], 2.2 µM; in assay [5] it was 19 µM.

`C#Cc1cc(C(=O)N[C@@H]2CCN(Cc3ccccc3)C2)c(OC)c2ccccc12` (stereo in doubt): the Ki in assay [1] is 0.25 µM; in assay [2] it was 0.007 µM; in assay [3] it was 0.5 µM; in assay [6], 0.079 µM; in assay [5], 6.1 µM.

Consider `COc1c(C(=O)N[C@H]2CN(Cc3ccccc3)C[C@H]2C)cc(Br)c2ccccc12` (stereo in doubt), for which the Ki in assay [7] was 0.17 µM; in assay [2] it was 0.027 µM; in assay [3], 0.29 µM; in assay [6], 0.13 µM; in assay [5] it was 4 µM.

Turning to `COc1cc(N)c(Cl)cc1C(=O)N[C@H]1CCCN(Cc2ccccc2)C1` (stereo in doubt), the Ki came to 4.2 µM in assay [1]; 0.53 µM in assay [2]; 7.9 µM in assay [3]; 8.7 µM in assay [6]; 13 µM in assay [5].

As for `COc1c(C(=O)N[C@@H]2CCN(Cc3ccccc3)C2)cc(C#Cc2ccccc2)c2ccccc12` (stereo in doubt; 3j), the Ki in assay [1] turned out to be 4 µM; in assay [2], 0.5 µM; in assay [3] it was 6.4 µM; in assay [6] it was 1 µM; in assay [5] it was 2.8 µM.

In the case of `COc1c(C(=O)N[C@@H]2CCN(Cc3ccccc3)C2)cc(I)c2ccccc12` (stereo in doubt; 3h), the inhibition constant (Ki) was 0.023 µM in assay [1]; 0.0012 µM in assay [2]; 0.06 µM in assay [3]; 0.034 µM in assay [6]; 3 µM in assay [5].

With `COc1c(C(=O)NCC[C@@H]2CCN(Cc3ccccc3)C2)cc(Br)c2ccccc12` (stereo in doubt; 3l), the Ki in assay [1] was 1.9 µM; in assay [2], 0.5 µM; in assay [3], 2 µM; in assay [6], 0.58 µM; in assay [5], 1.7 µM.

Take `CNc1cc(OC)c(C(=O)NC2CCN(Cc3ccccc3)CC2)cc1Cl`: the Ki is 0.015 µM in assay [1]; 0.0083 µM in assay [2]; 0.024 µM in assay [3]; 0.16 µM in assay [6]; 6.8 µM in assay [5].
